# Experimental data as given in ChEMBL document CHEMBL4261615, “Design, synthesis, biological evaluation and cellular imaging of imidazo[4,5-b]pyridine derivatives as potent and selective TAM inhibitors” (Bioorg Med Chem, 2018).
# The source made the active and inactive calls. The rule behind the calls is not given here.
# Tests used:
# [1] = species: Homo sapiens; test: (§1) Antiproliferative activity against human MGHU3 cells after 72 hrs by CellTiter-Glo assay; format: functional, cell-based
# [2] = system: RT-112; test: Antiproliferative activity against human RT112 cells after 72 hrs by CellTiter-Glo assay; format: functional, cell-based
# [3] = target: T1, Tyrosine-protein kinase receptor TYRO3 (Homo sapiens) (UniProt Q06418); test: Inhibition of recombinant GST-tagged human Tyro3 (451 to 890 residues) cytoplasmic domain expressed in Baculovirus expression system using poly (Glu-Ala-Tyr) peptide as substrate after 1.5 hrs by ELISA
# T1 sequence (whole entry): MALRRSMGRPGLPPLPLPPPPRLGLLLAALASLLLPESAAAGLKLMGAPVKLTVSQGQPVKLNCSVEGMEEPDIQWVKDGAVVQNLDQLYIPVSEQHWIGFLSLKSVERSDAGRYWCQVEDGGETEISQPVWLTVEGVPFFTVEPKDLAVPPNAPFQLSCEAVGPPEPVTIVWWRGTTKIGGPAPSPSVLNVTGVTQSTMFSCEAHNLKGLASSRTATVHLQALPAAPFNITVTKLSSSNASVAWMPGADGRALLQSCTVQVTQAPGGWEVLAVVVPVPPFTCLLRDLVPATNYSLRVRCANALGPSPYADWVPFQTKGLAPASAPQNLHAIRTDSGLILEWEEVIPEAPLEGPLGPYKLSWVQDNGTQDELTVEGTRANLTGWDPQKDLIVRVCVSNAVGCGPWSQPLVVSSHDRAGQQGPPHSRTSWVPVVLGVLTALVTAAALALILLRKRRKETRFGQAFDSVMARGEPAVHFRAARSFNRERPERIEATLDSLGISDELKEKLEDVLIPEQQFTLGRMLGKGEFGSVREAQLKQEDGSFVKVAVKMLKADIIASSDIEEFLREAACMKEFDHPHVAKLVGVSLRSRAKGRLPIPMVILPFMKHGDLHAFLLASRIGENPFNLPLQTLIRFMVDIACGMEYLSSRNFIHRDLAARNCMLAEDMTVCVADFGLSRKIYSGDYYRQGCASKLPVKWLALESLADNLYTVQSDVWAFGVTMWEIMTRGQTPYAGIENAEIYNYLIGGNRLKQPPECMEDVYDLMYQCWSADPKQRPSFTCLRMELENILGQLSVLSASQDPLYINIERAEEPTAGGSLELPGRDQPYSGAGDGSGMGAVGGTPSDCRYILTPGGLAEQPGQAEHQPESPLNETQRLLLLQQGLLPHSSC
# [4] = target: Tyrosine-protein kinase receptor UFO (Homo sapiens) (UniProt P30530); test: Inhibition of recombinant His-tagged human Axl (473 to end residues) cytoplasmic domain expressed in insect system using poly (Glu-Ala-Tyr) peptide as substrate after 1.5 hrs by ELISA
# [5] = target: T2, Tyrosine-protein kinase Mer (Homo sapiens) (UniProt Q12866); test: Inhibition of recombinant GST-tagged human Mer (578 to 872 residues) cytoplasmic domain expressed in Baculovirus system using poly (Glu-Ala-Tyr) peptide as substrate after 1.5 hrs by ELISA
# T2 sequence (whole entry): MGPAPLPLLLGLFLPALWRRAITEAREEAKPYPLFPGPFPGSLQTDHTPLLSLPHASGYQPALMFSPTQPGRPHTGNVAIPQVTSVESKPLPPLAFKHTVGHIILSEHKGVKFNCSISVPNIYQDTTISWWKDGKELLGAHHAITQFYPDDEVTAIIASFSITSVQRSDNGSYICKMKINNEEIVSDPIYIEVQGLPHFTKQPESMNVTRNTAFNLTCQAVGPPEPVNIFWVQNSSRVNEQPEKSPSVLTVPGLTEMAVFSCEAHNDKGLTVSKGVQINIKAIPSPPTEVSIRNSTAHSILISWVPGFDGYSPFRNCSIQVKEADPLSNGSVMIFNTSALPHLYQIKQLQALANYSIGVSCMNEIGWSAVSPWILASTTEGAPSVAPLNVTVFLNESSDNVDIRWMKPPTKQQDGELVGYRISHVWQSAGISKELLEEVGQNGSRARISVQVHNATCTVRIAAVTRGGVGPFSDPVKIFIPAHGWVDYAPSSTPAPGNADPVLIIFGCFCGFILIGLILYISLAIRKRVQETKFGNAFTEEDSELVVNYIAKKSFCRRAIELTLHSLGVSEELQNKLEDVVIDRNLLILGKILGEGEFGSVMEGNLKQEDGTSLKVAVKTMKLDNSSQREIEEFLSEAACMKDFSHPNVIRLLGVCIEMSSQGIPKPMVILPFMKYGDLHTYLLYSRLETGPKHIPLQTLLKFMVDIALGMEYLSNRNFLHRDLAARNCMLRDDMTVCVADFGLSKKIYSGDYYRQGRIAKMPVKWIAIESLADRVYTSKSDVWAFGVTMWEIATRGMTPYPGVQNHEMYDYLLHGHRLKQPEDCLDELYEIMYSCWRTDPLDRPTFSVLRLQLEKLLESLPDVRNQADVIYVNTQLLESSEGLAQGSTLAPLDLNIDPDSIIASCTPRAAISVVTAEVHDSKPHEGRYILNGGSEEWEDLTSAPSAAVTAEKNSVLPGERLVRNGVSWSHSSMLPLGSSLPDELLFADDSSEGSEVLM
# [6] = as §1; format: functional, cell-based
# [7] = system: A549; test: Antiproliferative activity against human A549 cells after 72 hrs by CellTiter-Glo assay; format: functional, cell-based; details: A549, 72 h
# Chain of Tyrosine-protein kinase receptor UFO (Homo sapiens) (P30530 whole entry, the tested form may be a part): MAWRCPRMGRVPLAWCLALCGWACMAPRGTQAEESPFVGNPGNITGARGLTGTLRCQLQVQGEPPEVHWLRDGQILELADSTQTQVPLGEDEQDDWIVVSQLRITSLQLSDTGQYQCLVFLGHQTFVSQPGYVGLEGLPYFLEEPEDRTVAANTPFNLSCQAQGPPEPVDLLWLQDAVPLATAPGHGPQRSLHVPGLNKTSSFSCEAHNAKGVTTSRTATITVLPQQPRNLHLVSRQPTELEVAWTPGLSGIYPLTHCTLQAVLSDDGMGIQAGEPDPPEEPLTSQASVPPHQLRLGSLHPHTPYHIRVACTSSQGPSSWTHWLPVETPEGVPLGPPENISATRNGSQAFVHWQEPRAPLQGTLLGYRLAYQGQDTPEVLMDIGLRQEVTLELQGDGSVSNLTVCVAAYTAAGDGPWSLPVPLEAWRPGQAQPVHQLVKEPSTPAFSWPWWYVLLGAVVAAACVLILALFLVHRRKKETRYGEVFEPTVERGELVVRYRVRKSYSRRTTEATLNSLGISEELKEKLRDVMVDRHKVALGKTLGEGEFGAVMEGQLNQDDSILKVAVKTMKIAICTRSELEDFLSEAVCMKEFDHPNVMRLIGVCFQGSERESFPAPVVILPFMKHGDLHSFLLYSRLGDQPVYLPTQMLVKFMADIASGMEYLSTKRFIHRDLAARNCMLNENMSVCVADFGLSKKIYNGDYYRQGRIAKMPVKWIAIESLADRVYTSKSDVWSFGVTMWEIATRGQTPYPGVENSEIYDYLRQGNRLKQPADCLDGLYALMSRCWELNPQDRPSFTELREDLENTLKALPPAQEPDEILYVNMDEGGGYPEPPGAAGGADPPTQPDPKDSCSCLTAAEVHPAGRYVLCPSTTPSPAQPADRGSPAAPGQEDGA
SMILES,inhibition [3],inhibition [4],inhibition [5],IC50 [7] [µM],Activity [1],Activity [2],IC50 [6] [µM],"IC50 ([2]; RT-112, 72 h) [µM]"
CCOc1ccn(-c2ccc(F)cc2)c(=O)c1C(=O)Nc1ccc(Oc2ccnc(N)c2Cl)c(F)c1,,,,,Active,Active,,
CC(C)c1nc2c(Oc3ccc(NC(=O)c4cccn(-c5ccc(F)cc5)c4=O)cc3F)c(-c3ccc(N(C)C)cc3)cnc2[nH]1,inactive,inactive,inactive,,,,,
COc1cc2nccc(Oc3ccc(NC(=O)C4(C(=O)Nc5ccc(F)cc5)CC4)cc3)c2cc1OC,,,,,Active,Active,,
COc1cc2/c(=N/c3ccc(Br)cc3F)nc[nH]c2cc1OCC1CCN(C)CC1 [VANDETANIB],,,,2.5 to 5,,,2.5 to 5,2.5 to 5
O=C(Nc1ccc(Oc2c(-c3ccccc3)cnc3[nH]cnc23)c(F)c1)c1cccn(-c2ccc(F)cc2)c1=O,inactive,inactive,inactive,,,,,
CC(C)c1nc2c(Oc3ccc(NC(=O)c4cccn(-c5ccc(F)cc5)c4=O)cc3F)c(-c3ccc(O)cc3)cnc2[nH]1,inactive,inactive,inactive,,,,,

# Second part, led by results:
inhibition [3],inhibition [4],inhibition [5],IC50 [7] [µM],SMILES,Activity [1],Activity [2],IC50 [6] [µM],"IC50 ([2]; RT-112, 72 h) [µM]"
inactive,inactive,inactive,,CCc1nc2c(Oc3ccc(NC(=O)c4cccn(-c5ccc(F)cc5)c4=O)cc3F)c(-c3ccc(N(C)C)cc3)cnc2[nH]1,,,,
inactive,inactive,inactive,,CC(C)c1nc2c(Oc3ccc(NC(=O)c4cccn(-c5ccc(F)cc5)c4=O)cc3F)c(-c3cccnc3)cnc2[nH]1,,,,
inactive,inactive,inactive,,CCc1nc2c(Oc3ccc(NC(=O)c4cccn(-c5ccc(F)cc5)c4=O)cc3F)c(-c3ccncc3)cnc2[nH]1,,,,
inactive,inactive,inactive,,CCc1nc2c(Oc3ccc(NC(=O)c4cccn(-c5ccc(F)cc5)c4=O)cc3F)c(-c3ccc(O)cc3)cnc2[nH]1,,,,
inactive,inactive,inactive,,CCc1nc2c(Oc3ccc(NC(=O)c4cccn(-c5ccc(F)cc5)c4=O)cc3F)c(-c3ccoc3)cnc2[nH]1,,,,
inactive,inactive,inactive,,CCc1nc2c(Oc3ccc(NC(=O)c4cccn(-c5ccc(F)cc5)c4=O)cc3F)c(-c3cccnc3)cnc2[nH]1,,,,
inactive,inactive,inactive,,CC(C)c1nc2c(Oc3ccc(NC(=O)c4cccn(-c5ccc(F)cc5)c4=O)cc3F)c(-c3ccoc3)cnc2[nH]1,,,,
inactive,inactive,inactive,,CC(C)c1nc2c(Oc3ccc(NC(=O)c4cccn(-c5ccc(F)cc5)c4=O)cc3F)c(-c3ccncc3)cnc2[nH]1,,,,
